Assay [1] has as its system A549 cells. Put plainly: Digital PCR (ddPCR) detection of the efficiency of nucleic acid delivery by lipid. Format: cell-based, human. Conditions: boiling or reverse evaporation method; samples after 6 hours (No. 39: reverse evaporation, 6 and 12 hours). From the text: 2.1 Experimental materials: A549 cells were purchased from the Cell Center of the Institute of Basic Medical Sciences, Chinese Academy of Medical Sciences, TRIzol lysis buffer was purchased from Sigma, High capacity cRNA Reverse Transcription Kit was purchased from ABI, USA, and the digital PCR related reagents were purchased from Bio-Rad USA.
2.2 Experimental method: the total cellular RNA was collected and extracted by TRIzol lysis buffer according to the above methods, and reverse transcribed to cDNA using High capacity cRNA Reverse Transcription Kit, and the cDNA from different groups was subject to digital PCR reaction. Refering to the QX200 Droplet Reader and QuantaSoft Software manual for the protocols, the results were analyzed using QuantaSoft software.
2.2 Experimental method: total RNA was collected and extracted by TRIzol lysis buffer according to the above method, and reverse transcribed to cDNA using High capacity cRNA Reverse Transcription Kit, and the cDNA from different groups was subjected to digital PCR reaction. Refer to the QX200 Droplet Reader and QuantaSoft Software manual for the protocols; the results were analyzed using QuantaSoft software.
2.2 Experimental method: Total RNA was collected and extracted by TRIzol lysis buffer according to the above method, and reverse transcribed to cDNA using TaqMan™ MicroRNA Reverse Transcription KitHigh, and the cDNA from different groups was subjected to digital PCR reaction. Refer to the QX200 Droplet Reader and QuantaSoft Software manual for the protocols; the results were analyzed using QuantaSoft software.
2.2 Experimental method: Total RNA was collected and extracted by TRIzol lysis buffer according to the above method, and reversed to cDNA using High capacity cRNA Reverse Transcription Kit, and the cDNA from different groups was subjected to digital PCR reaction. Refer to the QX200 Droplet Reader and QuantaSoft Software manual for the protocols; the results were analyzed using QuantaSoft software.

The test system of assay [2] is A549 cell (human lung adenocarcinoma cell). Put plainly: In vitro delivery of lipid nucleic acid mixture, RT-qPCR of intracellular small RNA. Type of assay: cell-based. Conditions: single lipid prepared by boiling or reverse evaporation method; RNA 100 nM; FIGS. 76, 91, 96, 99, 104, 106, 107. Here is the method:
3.1 NCI-N87 cell (gastric cancer cell), MRC-5 cell (lung fibroblast), A549 cell (lung cancer cell) were cultured to logarithmic growth phase, and then plated to a six-well plate at cell density of 1×10^6/2 mL medium/well; MRC-5 cell was cultured in Eagle's MEM medium (MEM, Gibco); A549 cell was cultured in Ham's F-12 medium (HyClone); NCI-N87 cell was cultured in RPMI-1640 medium (HyClone); followed by incubation overnight at 37° C., and the follow-up experiments were performed after the cells were attached to the walls.
3.3 After co-incubation with the small RNA for 3 hours, the cells were washed 2-3 times with PBS. The cells were harvested with TRIzol lysis buffer, and the total RNA was extracted. The abundance of small RNA that entered cells was detected by RT-qPCR, and the localization of RNA was detected by fluorescence in situ hybridization; protocols of each detection method were as follows:
1) The sRNA was reverse transcribed to cDNA: Reverse Transcription Kit (High-Capacity cDNA Reverse Transcription Kits, Applied Biosystems, cat. No. 4368813) was used to reverse transcribe sRNA into cDNA by stem-loop method, and the reverse transcription system was as follows: RNA template (150 ng/μl) 10 μl, 10×RT buffer, 2.0 μl, 25× dNTP Mix (100 mM) 0.8 μl, U6 RT stem-loop primer 2.0 μl, HJT-sRNA-RT-m7 stem-loop primer 2.0 μl, MultiScribe™ reverse transcriptase 1.0 μl, RNase inhibitor 1.0 μl, nuclease-free H2O 1.2 μl, loaded into a PCR reactor after brief centrifugation, the reaction conditions were as follows: (1) 25° C., 10 min; (2) 37° C., 120 min; (3) 85° C., 5 min; (4) 4° C., termination of the reaction. 20 μl RNase-free ddH2O was added to make up the final volume to 40 μl after the reaction. The stem-loop primer used in the reverse transcription process was synthesized by Beijing Tsingke Biotechnology Co., Ltd.
2) Quantitative PCR amplification reaction: the qPCR reaction system has a total volume of 10 μl, containing: 5 μL 2×SYBR Green Master Mix, 0.5 μl forward primer ([…]), 0.5 μl reverse primer (10 μM), 1 μl cDNA by reverse transcription, 3 RNase-free dH2O. LightCycler 480 fluorescence quantitative PCR instrument was used, and the PCR reaction conditions were: 95° C. for 5 min for pre-denaturation, followed by PCR amplification cycle: (1) 95° C., 10 s; (2) 55° C., 10 s; (3) 72° C. , 20 s; a total of 40 cycles; 40° C. for 10 s in the end to cool down. Both the forward and reverse primers of the amplification reaction were designed and synthesized by Beijing Tsingke Biotechnology Co., Ltd.
3) The relative expression level was calculated by 2-ΔCt method.
100 μl lipid in diethyl ether solution was prepared, and grouped according to the lipid numbers shown in Table 1 (the lipid concentrations are shown in the table below). To the lipid solution was added 20 μl nucleic acid solution (HJT sRNA or siRNA) at the volume ratio of 5:1, and sonicated for after 3 min. The diethyl ether was removed by evaporation at 55° C., and then 100 μl DEPC water was added for hydration to give nucleic acid lipid mixture.
100 μL of the nucleic acid solution (HJT sRNA or siRNA) was added to 2-5 μL of the lipid in chloroform (the concentration was shown in Table 1), mixed, and heated at 80-100° C. for 15-30 min to give nucleic acid lipid mixture.
3.1.1 MRC-5 cell (pulmonary embryonic fibroblast), A549 cell (human lung adenocarcinoma cell), Caco-2 cell (human colon adenocarcinoma cell) (purchased from the Cell Resource Center of the Institute of Basic Medical Sciences, Chinese Academy of Medical Sciences) were cultured to logarithmic growth phase, then plated into 12-well plates at a cell density of 6×10^5/1 mL medium/well; MRC-5 and Caco-2 cells were cultured in Eagle's MEM medium (MEM, Gibco); A549 cells were cultured in Ham's F-12 medium (HyClone); followed by incubation overnight at 37° C., and the follow-up experiments were performed after the cells were attached to the walls. […]
(Quantitative PCR measures a nucleic acid by following its amplification.)

Assay [3] is described as follows: In vivo delivery of single-stranded sRNA by single lipid, gavage (Example 11). Also on record: species or system C57 mice. Conditions: FIGS. 108, 112-115; oral (gavage), 10 μL lipid, sRNA 1 nmol each, heating method, 12 hours; vs POPC and Lipofectamine RNAiMAX. Here is the method: 1. Experimental animals: C57 mice, male, approximately 6 weeks old.
2. Manufacture of lipid mixture: the prepration was conducted on the basis of a dose of 10 μ1 lipid-1 nmol sRNA per mouse as follows: dissolved 1 nmol of each sRNA in 500 μl DEPC water, added 10 μl of the corresponding lipid, pipette to mix thoroughly, and then naturally cooled down after water bath for 15 min at 90° C., and administered via gavage.
1) Tissue sampling and extraction of RNA: 6 hours after gavage in mice, took 500 μl of blood from the eyeball, added 1.5 ml Trizol Reagent LS to thoroughly mix and lyse, added 3 ml Trizol Reagent (purchased from Invitrogen) to the tissue samples and homogenized until complete lysis. Tissues sampled: live/stomach/small intestine.
2) Reverse transcription of sRNA to cDNA: Reverse Transcription Kit (High-Capacity cDNA Reverse Transcription Kits, Applied Biosystems, cat. no. 4368813), was used to reverse transcribe the total RNA to cDNA, and the reverse system was as follows: template RNA (150 ng/μL) 10 μL, 10× RT buffer, 2.0 μL, 25× dNTP Mix (100 mM) 0.8 μL, random primers 2.0 μL, the Multi Scribe™ reverse Transcriptase 1.0 μL, RNase inhibitor 1.0 μL, nuclease-free H2O 3.2 μL. After a brief centrifugation, the reaction was loaded in a PCR reactor. The reaction conditions were as follows: (1) 25° C., 10 min; (2) 37° C., 120 min; (3) 85° C., 5 min; (4) 4° C., termination of the reaction. After the reaction, 20 μL RNase-free ddH2O was added to make up the final volume to 40 μL.
LightCycler 480 fluorescence quantitative PCR instrumentwas used, and the PCR reaction conditions were: 95° C. , 5 min for pre-denaturation, followed by the PCR amplification cycle: (1) 95° C., 10 s; (2) 55° C., 10 s; (3) 72° C., 20 s; a total of 40 cycles; 40° C. for 10 s in the end to cool down. The forward primer and reverse primer of the amplification reaction were designed and synthesized by Beijing Qing Ke New Industrial Biotechnology Co., Ltd. (U6 F primer: GCGCGTCGTGAAGCGTTC (SEQ ID NO: 23), U6 R primer: GTGCAGGGTCCGAGGT (SEQ ID NO: 24)).
3) The relative expression amount was calculated by the 2-ΔCt method.
5) Treatment group of single lipid and nucleic acid mixture: a mixture of 10 μL of single lipid (No. 41) with single-stranded sRNA mixure solution (PGY-sRNA-23, PGY-sRNA-26 and PGY-sRNA-32, 1 nmol each) was treated by heating method and then given to mice via intragastric administration.
2. 12 hours after intragastric administration, the blood was taken from the eyeball, and various tissues (liver/stomach/small intestine) was sampled. TRIzol was used for full lysis and the RNA was extracted to detect the amount of entry.

“Also recorded” adds a separate entry of the source.

As to `CCCCCC/C=C\CCCCCCCCCC(=O)O[C@H](COC(=O)CCCCCCC/C=C\CCCCCC)COP(=O)(O)OCCN` [No. 39, (2-aminoethoxy) [(2R)-3-[(9Z)-hexadec-9-enoyloxy]-2-[(11Z)-octadec-11-enoyloxy]propoxy] phosphinic acid], in assay [1], the “delivery of HJT-sRNA-m7 dsRNA into A549 cells (ddPCR)” value is given as “could effectively deliver HJT-sRNA-m7 dsRNA into A549 cells”. Also, the “delivery of HJT-sRNA-m7 double-stranded RNA into A549 cells (real-time PCR)” value in assay [2] was “delivered double-stranded RNA into A549 cells”.

As to `CCCCCCCCCCCCCCCC(=O)OCC(COP(=O)(O)OCCN)OC(=O)CCCCCCCCCCCCCCC` (stereo not drawn) [No. 71, 1,2-Dipalmitoyl-sn-Glycero-3-Phosphatidyl-ethanolamine], the “delivery of sRNA single-stranded nucleic acid into mouse blood” value in assay [3] is “could effectively deliver sRNA single-stranded nucleic acid into mouse blood via oral administration; also recorded: the delivery effect was better than POPC and Lipofectamine RNAiMAX”.

The values are drawn from US20210100905A1, “APPLICATION OF COMPOUND OR TRADITIONAL CHINESE MEDICINE EXTRACT IN PREPARATION OF NUCLEIC ACID DELIVERY AGENT, AND RELATED PRODUCTS” (INSTITUTE OF BASIC MEDICAL SCIENCES CHINESE ACADEMY OF …, priority 2018, published 2021).
